Like-named read-outs stand apart in the source and are kept apart here.
Experiments:
[1] = test system: asynchronous 3D7 chloroquine-sensitive P. falciparum infected red blood cells; experiment: Labeled hypoxanthine incorporation assay (in vitro anti-malarial activity); format: cell-based; settings: Plasmodium falciparum, 3D7, Erythrocyte, read-out: IC50 assessed on Plasmodium Falciparum
[2] = test system: Toxoplasma gondii RH-β1 strain; experiment: microbe, parasite or virus in culture; format: cell-based; settings: Toxoplasma gondii, read-out: IC50 assessed on Toxoplama Gondii
[3] = 3D7 chloroquine-sensitive strain, infected RBC, 48 h contact, [3H]-hypoxanthine incorporation, two independent experiments in duplicates

SMILES: C[C@@H](COC(=O)N1CCC(n2c(=O)n(S(=O)(=O)c3ccc(C(F)(F)F)cc3)c3ccccc32)CC1)N(Cc1ccccc1)Cc1ccccc1 [Compound 58, (S)-2-(dibenzylamino)propyl 4-(2-oxo-3-(4-(trifluoromethyl)phenylsulfonyl)-2,3-dihydro-1H-benzo[d]imidazol-1-yl)piperidine-1-carboxylate]
- IC50 [1, 3]: 0.42 µM
- IC50 [2]: 8.5 µM

SMILES: C[C@@H](COC(=O)N1CCC(n2c(=O)n(S(=O)(=O)c3cccs3)c3ccccc32)CC1)N(Cc1ccccc1)Cc1ccccc1 [Compound 59, (S)-2-(dibenzylamino)propyl 4-(2-oxo-3-(thiophen-2-ylsulfonyl)-2,3-dihydro-1H-benzo[d]imidazol-1-yl)piperidine-1-carboxylate]
- IC50 [1, 3]: 0.47 µM
- IC50 [2]: 3.8 µM

SMILES: C[C@@H](COC(=O)N1CCC(n2c(=O)n(S(=O)(=O)c3cccc4ccccc34)c3ccccc32)CC1)N(Cc1ccccc1)Cc1ccccc1 [Compound 61, (S)-2-(dibenzylamino)propyl 4-(3-(naphthalen-1-ylsulfonyl)-2-oxo-2,3-dihydro-1H-benzo[d]imidazol-1-yl)piperidine-1-carboxylate]
- IC50 [1, 3]: 0.95 µM
- IC50 [2]: 2.3 µM

SMILES: C[C@@H](COC(=O)N1CCC(n2c(=O)n(S(C)(=O)=O)c3ccccc32)CC1)N(Cc1ccccc1)Cc1ccccc1 [Compound 62, (S)-2-(dibenzylamino)propyl 4-(2-oxo-3-methylsulfonyl-2,3-dihydro-1H-benzo[d]imidazol-1-yl)piperidine-1-carboxylate]
- IC50 [1, 3]: 1.6 µM
- IC50 [2]: 1.98 µM

SMILES: CC(=O)Nc1ccc(S(=O)(=O)n2c(=O)n(C3CCN(C(=O)OC[C@H](C)N(Cc4ccccc4)Cc4ccccc4)CC3)c3ccccc32)cc1 [Compound 63, (S)-2-(dibenzylamino)propyl 4-(2-oxo-3-(4-acetamidylphenylsulfonyl)-2,3-dihydro-1H-benzo[d]imidazol-1-yl)piperidine-1-carboxylate]
- IC50 [1, 3]: 1.54 µM
- IC50 [2]: 3 µM

SMILES: C[C@@H](COC(=O)N1CCC(n2c(=O)n(C(=O)c3ccccc3)c3ccccc32)CC1)N(Cc1ccccc1)Cc1ccccc1 [Compound 64, (S)-2-(dibenzylamino)propyl 4-(1,2-dihydro-2-oxo-1-(benzoyl)benzo[d]imidazol-3-yl)piperidine-1-carboxylate]
- IC50 [1, 3]: 2.88 µM
- IC50 [2]: 0.96 µM

SMILES: CC(=O)n1c(=O)n(C2CCN(C(=O)OC[C@H](C)N(Cc3ccccc3)Cc3ccccc3)CC2)c2ccccc21 [Compound 65, (S)-2-(dibenzylamino)propyl 4-(1-acetyl-1,2-dihydro-2-oxobenzo[d]imidazol-3-yl)piperidine-1-carboxylate]
- IC50 [1, 3]: 2.94 µM
- IC50 [2]: 0.99 µM

SMILES: C[C@@H](COC(=O)N1CCC(n2c(=O)n(C(=O)OC(C)(C)C)c3ccccc32)CC1)N(Cc1ccccc1)Cc1ccccc1 [Compound 67, tert-butyl 3-(1-(((S)-2-(dibenzylamino)propoxy)carbonyl)piperidin-4-yl)-2,3-dihydro-2-oxobenzo[d]imidazole-1-carboxylate]
- IC50 [1, 3]: 0.785 µM
- IC50 [2]: 2 µM

SMILES: Cn1c(=O)n(C2CCN(C(=O)OC[C@H](Cc3ccccc3)N(Cc3ccccc3)Cc3ccccc3)CC2)c2ccccc21 [Compound 68, (S)-2-(dibenzylamino)-3-phenylpropyl 4-(1,2-dihydro-1-methyl-2-oxobenzo[d]imidazol-3-yl)piperidine-1-carboxylate]
- IC50 [1, 3]: 0.452 µM
- IC50 [2]: 0.8 µM

SMILES: C[C@@H](COC(=O)N1CCC(n2c(=O)n(C)c3ccccc32)CC1)N(Cc1ccccc1)Cc1ccccc1 [Compound 69, (S)-2-(dibenzylamino)propyl 4-(1,2-dihydro-1-methyl-2-oxobenzo[d]imidazol-3-yl)piperidine-1-carboxylate]
- IC50 [1, 3]: 1.54 µM
- IC50 [2]: 0.2 µM

SMILES: O=C(OC[C@H](Cc1ccccc1)N(Cc1ccccc1)Cc1ccccc1)N1CCC(n2c(=O)n(Cc3ccccc3)c3ccccc32)CC1 [Compound 70, (S)-2-(dibenzylamino)-3-phenylpropyl 4-(1-benzyl-1,2-dihydro-2-oxobenzo[d]imidazol-3-yl)piperidine-1-carboxylate]
- IC50 [1, 3]: 0.953 µM
- IC50 [2]: 3.6 µM

SMILES: C[C@@H](COC(=O)N1CCC(n2c(=O)n(Cc3ccccc3)c3ccccc32)CC1)N(Cc1ccccc1)Cc1ccccc1 [Compound 71, (S)-2-(dibenzylamino)propyl 4-(1-benzyl-1,2-dihydro-2-oxobenzo[d]imidazol-3-yl)piperidine-1-carboxylate]
- IC50 [1, 3]: 0.77 µM
- IC50 [2]: 1.76 µM

SMILES: C[C@@H](COC(=O)N1CCC(n2c(=O)n(CC3CCCCC3)c3ccccc32)CC1)N(Cc1ccccc1)Cc1ccccc1 [Compound 72, (S)-2-(dibenzylamino)propyl 4-(1-(cyclohexylmethyl)-1,2-dihydro-2-oxobenzo[d]imidazol-3-yl)piperidine-1-carboxylate]
- IC50 [1, 3]: 1.03 µM
- IC50 [2]: 1.57 µM

SMILES: C[C@@H](COC(=O)N1CCC(n2c(=O)n(CCNC(=O)OC(C)(C)C)c3ccccc32)CC1)N(Cc1ccccc1)Cc1ccccc1 [Compound 73, (S)-2-(dibenzylamino)propyl 4-(3-(2-tert-butyloxycarbonylaminoethyl)-2-oxo-2,3-dihydro-1H-benzo[d]imidazol-1-yl)piperidine-1-carboxylate]
- IC50 [1, 3]: 1.42 µM
- IC50 [2]: 3 µM

SMILES: CC(C)(C)OC(=O)NCCn1c(=O)n(C2CCN(C(=O)OC[C@H](Cc3ccccc3)N(Cc3ccccc3)Cc3ccccc3)CC2)c2ccccc21 [Compound 74, (S)-2-(dibenzylamino)-3-phenylpropyl 4-(3-(2-tert-butyloxycarbonylaminoethyl)-2-oxo-2,3-dihydro-1H-benzo[d]imidazol-1-yl)piperidine-1-carboxylate]
- IC50 [1, 3]: 0.384 µM
- IC50 [2]: 3.2 µM

SMILES: C[C@@H](COC(=O)N1CCC(n2c(=O)n(-c3ccccc3)c3ccccc32)CC1)N(Cc1ccccc1)Cc1ccccc1 [Compound 75, (S)-2-(dibenzylamino)propyl 4-(1,2-dihydro-2-oxo-1-phenylbenzo[d]imidazol-3-yl)piperidine-1-carboxylate]
- IC50 [1, 3]: 2.29 µM
- IC50 [2]: 3.5 µM

SMILES: O=C(CCCC[C@@H]1SC[C@@H]2NC(=O)N[C@@H]21)NCCn1c(=O)n(C2CCN(C(=O)OC[C@H](Cc3ccccc3)N(Cc3ccccc3)Cc3ccccc3)CC2)c2ccccc21 [Compound 76, (S)-2-(dibenzylamino)-3-phenylpropyl 4-(3-(2 aminoethyl)-2-oxo-2,3-dihydro-1H-benzo[d]imidazol-1-yl)piperidine-1-carboxylate D-biotin amid]
- IC50 [1, 3]: 0.48 µM
- IC50 [2]: 2.6 µM

SMILES: CCOC(=O)CCCn1c(=O)n(C2CCN(C(=O)OC[C@H](C)N(Cc3ccccc3)Cc3ccccc3)CC2)c2ccccc21 [Compound 77, (S)-2-(dibenzylamino)propyl 4-(3-(4-ethoxy-4-oxobutyl)-2-oxo-2,3-dihydro-1H-benzo[d]imidazol-1-yl)piperidine-1-carboxylate]
- IC50 [1, 3]: 0.6 µM
- IC50 [2]: 5.7 µM

SMILES: C[C@@H](COC(=O)N1CCC(n2c(=O)n(CCCC(=O)O)c3ccccc32)CC1)N(Cc1ccccc1)Cc1ccccc1 [Compound 78, (S)-4-(3-(1-((2-(dibenzylamino)propoxy)carbonyl)piperidin-4-yl)-2-oxo-2,3-dihydro-1H-benzo[d]imidazol-1-yl)butanoic acid]
- IC50 [1, 3]: 6.29 µM
- IC50 [2]: 1.7 µM

SMILES: C[C@@H](COC(=O)N1CCC(n2c(=O)n3c4c(cccc42)C(=O)CCC3)CC1)N(Cc1ccccc1)Cc1ccccc1 [Compound 79, (S)(1-((2-(dibenzylamino)propoxy)carbonyl)piperidin-4-yl)-5,6-dihydro-imidazo[4,5,1,j,k][1]benzazepine-2,7(1H,4H)-dione]
- IC50 [1, 3]: 3.12 µM
- IC50 [2]: 11.5 µM

SMILES: C[C@@H](COC(=O)N1CCC(Nc2ccccc2)CC1)N(Cc1ccccc1)Cc1ccccc1 [Compound 80, (S)-2-(dibenzylamino)propyl 4-(phenylamino)piperidine-1-carboxylate]
- IC50 [1]: 3.41 µM
- IC50 [2]: 9.5 µM

SMILES: COc1ccc(NC2CCN(C(=O)OC[C@H](C)N(Cc3ccccc3)Cc3ccccc3)CC2)cc1 [Compound 81, (S)-2-(dibenzylamino)propyl 4-(4-methoxyphenylamino)piperidine-1-carboxylate]
- IC50 [1, 3]: 8.42 µM
- IC50 [2]: 10 µM

SMILES: COc1ccc(NC2CCN(C(=O)OC[C@H](C)N(Cc3ccccc3)Cc3ccccc3)CC2)c(OC)c1 [Compound 82, (S)-2-(dibenzylamino)propyl 4-(2,4-dimethoxyphenylamino)piperidine-1-carboxylate]
- IC50 [1, 3]: 2.38 µM
- IC50 [2]: 7.3 µM

SMILES: COc1cc(NC2CCN(C(=O)OC[C@H](C)N(Cc3ccccc3)Cc3ccccc3)CC2)cc(OC)c1OC [Compound 83, (S)-2-(dibenzylamino)propyl 4-(3,4,5-trimethoxyphenylamino)piperidine-1-carboxylate]
- IC50 [1, 3]: 3.09 µM
- IC50 [2]: 16 µM

SMILES: C[C@@H](COC(=O)N1CCC(Nc2cccc(F)c2)CC1)N(Cc1ccccc1)Cc1ccccc1 [Compound 84, (S)-2-(dibenzylamino)propyl 4-(3-fluorophenylamino)piperidine-1-carboxylate]
- IC50 [1]: 6.74 µM
- IC50 [2]: 5.5 µM

SMILES: C[C@@H](COC(=O)N1CCC(Nc2ccc(I)cc2)CC1)N(Cc1ccccc1)Cc1ccccc1 [Compound 85, (S)-2-(dibenzylamino)propyl 4-(4-iodophenylamino)piperidine-1-carboxylate]
- IC50 [1]: 8.09 µM
- IC50 [2]: 7.65 µM

SMILES: C[C@@H](COC(=O)N1CCC(Nc2ccc(Cl)c(Cl)c2)CC1)N(Cc1ccccc1)Cc1ccccc1 [Compound 86, (S)-2-(dibenzylamino)propyl 4-(3,4-dichlorophenylamino)piperidine-1-carboxylate]
- IC50 [1]: 7.25 µM
- IC50 [2]: 3.75 µM

SMILES: C[C@@H](COC(=O)N1CCC(Nc2ccccc2N)CC1)N(Cc1ccccc1)Cc1ccccc1 [Compound 87, (S)-2-(dibenzylamino)propyl 4-(2-aminophenylamino)piperidine-1-carboxylate]
- IC50 [1, 3]: 10.3 µM
- IC50 [2]: 12.9 µM

From patent publication US20100292214A1, “Compounds with Antiparasitic Activity, Applications thereof to the Treatment of Infectious Diseases Caused by Apicomplexans” (commissariat a l'Energie Atomique, priority 2007, published 2010)
